According to ChEMBL document CHEMBL3352806, “Cytotoxic bibenzyl dimers from the stems of Dendrobium fimbriatum Hook” (Bioorg Med Chem Lett, 2014):
Active and inactive are the calls of the source. The rule behind the calls is not given here.

Key:
Type in all cases: functional, cell-based
SW480 [1] = assay: Cytotoxicity against human SW480 cells assessed as reduction in cell number
SMMC-7721 [2] = assay: Cytotoxicity against human SMMC7721 cells assessed as reduction in cell number
[3] = Cytotoxicity against human HL60 cells assessed as reduction in cell number; conditions: HL-60
MCF7 [4] = assay: Cytotoxicity against human MCF7 cells assessed as reduction in cell number
A549 [5] = assay: Cytotoxicity against human A549 cells assessed as reduction in cell number
A549 [6] = assay: Cytotoxicity against human A549 cells assessed as reduction in cell number at 40 uM
HL-60 = assay: Cytotoxicity against human HL60 cells assessed as reduction in cell number at 40 uM
SW480 [7] = assay: Cytotoxicity against human SW480 cells assessed as reduction in cell number at 40 uM
SMMC-7721 [8] = assay: Cytotoxicity against human SMMC7721 cells assessed as reduction in cell number at 40 uM
MCF7 [9] = assay: Cytotoxicity against human MCF7 cells assessed as reduction in cell number at 40 uM

COc1cc(CCc2cc(O)c(Cc3c(CCc4cccc(O)c4)cc(O)cc3OC)c(OC)c2)ccc1O
IC50 (SW480 [1]): > 40 µM
IC50 (SMMC-7721 [2]): > 40 µM
IC50 [3]: 22.3 µM
IC50 (MCF7 [4]): 24.8 µM
IC50 (A549 [5]): > 40 µM

COc1cc(CCc2cc(O)c(OC)c(OC)c2)ccc1O
IC50 (SW480 [1]): > 40 µM
IC50 (SMMC-7721 [2]): > 40 µM
IC50 [3]: 24.3 µM
IC50 (MCF7 [4]): 37.1 µM
IC50 (A549 [5]): > 40 µM

COc1cc(O)c(Cc2c(CCc3ccc(O)c(OC)c3)cc(O)cc2OC)c(CCc2ccc(O)c(OC)c2)c1
IC50 (SW480 [1]): 21.2 µM
IC50 (SMMC-7721 [2]): 18.9 µM
IC50 [3]: 16.8 µM
IC50 (MCF7 [4]): 7.75 µM
IC50 (A549 [5]): 16.5 µM

Oc1cc(O)c2c(c1)C[C@H](O)c1cccc(O)c1-2
Activity (A549 [6]): inactive
Activity (HL-60): inactive
Activity (SW480 [7]): inactive
Activity (SMMC-7721 [8]): inactive
Activity (MCF7 [9]): inactive

COc1ccc(CCc2cc(OC)c(O)c(OC)c2)cc1O
IC50 (SW480 [1]): 5.17 µM
IC50 (SMMC-7721 [2]): 10.1 µM
IC50 [3]: 2.95 µM
IC50 (MCF7 [4]): 12.3 µM
IC50 (A549 [5]): 6.6 µM

COc1cc(CCc2cc(O)cc(O)c2Cc2c(O)cc(O)cc2CCc2ccc(O)c(OC)c2)ccc1O
Activity (A549 [6]): inactive
Activity (HL-60): inactive
Activity (SW480 [7]): inactive
Activity (SMMC-7721 [8]): inactive
Activity (MCF7 [9]): inactive

COc1cc(O)cc(CCc2cccc(O)c2)c1
Activity (A549 [6]): inactive
Activity (HL-60): inactive
Activity (SW480 [7]): inactive
Activity (SMMC-7721 [8]): inactive
Activity (MCF7 [9]): inactive

COc1cc(O)cc(CCc2ccc(O)c(OC)c2)c1
Activity (A549 [6]): inactive
Activity (HL-60): inactive
Activity (SW480 [7]): inactive
Activity (SMMC-7721 [8]): inactive
Activity (MCF7 [9]): inactive

COc1cc(CCc2cc(O)cc(OC)c2Cc2c(CCc3ccc(O)c(OC)c3)cc(O)cc2OC)ccc1O
IC50 (SW480 [1]): 18.8 µM
IC50 (SMMC-7721 [2]): 16.9 µM
IC50 [3]: 13.9 µM
IC50 (MCF7 [4]): 5.85 µM
IC50 (A549 [5]): 14.5 µM

COc1cc(CCc2cc(O)c(Cc3c(CCc4ccc(O)c(OC)c4)cc(O)cc3OC)c(OC)c2)ccc1O
IC50 (SW480 [1]): 18.2 µM
IC50 (SMMC-7721 [2]): 16.6 µM
IC50 [3]: 15.8 µM
IC50 (MCF7 [4]): 12.1 µM
IC50 (A549 [5]): 15.6 µM

COc1cc(O)c(Cc2c(O)cc(CCc3ccc(O)c(OC)c3)cc2OC)c(CCc2ccc(O)c(OC)c2)c1
IC50 (SW480 [1]): 17.2 µM
IC50 (SMMC-7721 [2]): 18.3 µM
IC50 [3]: 16.1 µM
IC50 (MCF7 [4]): 12.7 µM
IC50 (A549 [5]): 16.3 µM

COc1cc(CCc2cc(OC)c(O)c(OC)c2)ccc1O [MOSCATILIN]
IC50 (SW480 [1]): 6.88 µM
IC50 (SMMC-7721 [2]): 4.07 µM
IC50 [3]: 2.18 µM
IC50 (MCF7 [4]): 6.2 µM
IC50 (A549 [5]): 5.73 µM

COc1cc(CC(OC)c2cc(OC)c(O)c(OC)c2)ccc1O (stereo not given)
Activity (A549 [6]): inactive
Activity (HL-60): inactive
Activity (SW480 [7]): inactive
Activity (SMMC-7721 [8]): inactive
Activity (MCF7 [9]): inactive

COc1cc(O)c(Cc2c(O)cc(OC)cc2CCc2ccc(O)c(OC)c2)c(CCc2ccc(O)c(OC)c2)c1
IC50 (SW480 [1]): 18.8 µM
IC50 (SMMC-7721 [2]): 17.5 µM
IC50 [3]: 19.1 µM
IC50 (MCF7 [4]): 13.7 µM
IC50 (A549 [5]): 16.6 µM

COc1cc(CCc2cc(O)cc(O)c2)ccc1O
Activity (A549 [6]): inactive
Activity (HL-60): inactive
Activity (SW480 [7]): inactive
Activity (SMMC-7721 [8]): inactive
Activity (MCF7 [9]): inactive
